This passage reports IC50 results from ChEMBL document CHEMBL1129722, “Synthesis and biological activity of conformationally constrained sialyl Lewis X analogues with reduced carbohydrate character” (Bioorg Med Chem Lett, 1996).

This experiment addresses T1, E-selectin (Homo sapiens, UniProt P16581).
T1 sequence (P16581 whole entry): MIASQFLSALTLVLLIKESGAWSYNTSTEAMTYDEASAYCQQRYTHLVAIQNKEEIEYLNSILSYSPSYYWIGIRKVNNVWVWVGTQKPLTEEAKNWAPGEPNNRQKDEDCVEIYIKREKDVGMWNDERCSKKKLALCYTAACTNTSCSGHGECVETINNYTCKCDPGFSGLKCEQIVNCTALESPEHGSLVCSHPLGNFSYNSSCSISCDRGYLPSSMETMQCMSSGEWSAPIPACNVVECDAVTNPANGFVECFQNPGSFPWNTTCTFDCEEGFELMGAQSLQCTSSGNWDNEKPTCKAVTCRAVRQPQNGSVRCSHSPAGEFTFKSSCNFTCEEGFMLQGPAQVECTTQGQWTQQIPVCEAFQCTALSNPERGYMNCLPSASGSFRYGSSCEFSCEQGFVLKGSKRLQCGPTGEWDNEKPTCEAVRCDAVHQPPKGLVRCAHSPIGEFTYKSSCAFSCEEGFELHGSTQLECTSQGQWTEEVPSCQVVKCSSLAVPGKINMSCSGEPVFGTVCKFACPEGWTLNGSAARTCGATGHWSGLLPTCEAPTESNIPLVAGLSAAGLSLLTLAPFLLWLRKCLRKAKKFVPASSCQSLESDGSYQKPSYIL
Briefly: Compound was tested for its ability to inhibit the binding to recombinant human Selectin E immobilized on SPA beads of radiolabeled HL60 cell membrane containing sLex. Format: cell membranes, HL-60.

Take `C[C@@H]1O[C@@H](OC2CCCCC2O[C@@H]2O[C@@H](CO)[C@H](O)[C@H](OCC(=O)O)[C@@H]2O)[C@@H](O)[C@@H](O)[C@@H]1O` (stereo partly drawn): the IC50 worked out at 500 µM.
In the case of `CC(O[C@@H]1O[C@@H](C)[C@@H](O)[C@H](O)[C@@H]1O)C(C)O[C@@H]1O[C@@H](CO)[C@H](O)[C@H](OCC(=O)O)[C@@H]1O` (stereo partly drawn) it was 2100 µM; in that of `C[C@@H]1O[C@@H](O[C@@H]2CCCC[C@H]2O[C@@H]2O[C@@H](CO)[C@H](O)[C@H](OCC(=O)O)[C@@H]2O)[C@@H](O)[C@@H](O)[C@@H]1O`, over 10000 µM.
